From US4536346A, “Aralkanamidophenyl compounds” (American Cyanamid Company, priority 1983, dated 1985) come the findings set out here.

The target in this assay is T1, fatty acyl CoA: cholesterol acyl transferase (ACAT) (Rattus norvegicus, UniProt O70536).
T1 construct: The supernatant, containing the microsomal fraction, served as the source of the cholesterol-esterifying enzyme; from tissue; host or cells: rat adrenals (1,000 x g supernatant containing the microsomal fraction)
T1 sequence (O70536 1-545): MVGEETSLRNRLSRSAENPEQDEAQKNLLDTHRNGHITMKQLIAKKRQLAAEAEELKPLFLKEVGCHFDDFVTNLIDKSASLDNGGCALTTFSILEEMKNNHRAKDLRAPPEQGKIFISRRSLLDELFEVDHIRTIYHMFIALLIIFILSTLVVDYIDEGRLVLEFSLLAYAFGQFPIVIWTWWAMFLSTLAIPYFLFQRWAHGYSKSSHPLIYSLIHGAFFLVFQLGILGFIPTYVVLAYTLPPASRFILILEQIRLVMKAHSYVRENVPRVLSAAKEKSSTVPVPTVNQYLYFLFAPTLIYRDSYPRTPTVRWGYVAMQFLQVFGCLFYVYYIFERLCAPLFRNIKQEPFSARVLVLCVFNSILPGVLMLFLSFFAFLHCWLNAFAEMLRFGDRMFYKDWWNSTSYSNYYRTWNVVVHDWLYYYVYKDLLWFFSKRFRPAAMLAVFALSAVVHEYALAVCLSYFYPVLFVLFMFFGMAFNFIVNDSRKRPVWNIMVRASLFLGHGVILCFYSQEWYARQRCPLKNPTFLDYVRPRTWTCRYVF
The experiment in a line: Inhibition of enzymatic esterification of cholesterol (ACAT) in rat adrenal supernatant containing the microsomal fraction. Type of assay: biochemical. Particulars: final concentration of test compound 5.2 μg./ml., percent inhibition of the ACAT enzyme compared to control values. On the procedure: The compounds of the present invention were tested for their ability to inhibit the enzymatic esterification of cholesterol according to the following procedure:
Rat adrenals were homogenized in 0.2M monobasic potassium phosphate buffer, pH 7.4, and centrifuged at 1,000 times gravity for 15 minutes at 5° C. The supernatant, containing the microsomal fraction, served as the source of the cholesterol-esterifying enzyme, fatty acyl CoA: cholesterol acyl transferase (ACAT). A mixture comprising 50 parts of adrenal supernatant, 10 parts of albumin (BSA) (50 mg./ml.), […], 3 parts of test compound, and 500 parts of buffer was pre-incubated at 37° C. for 10 minutes. After treatment with 20 parts of oleoyl CoA (^14 C-0.4 μCi), the mixture was incubated at 37° C. for 10 minutes. A control mixture, omitting the test compound, was prepared and treated in the same manner. The lipids from the incubation mixture were extracted into an organic solvent and separated by thin-layer chromatography. The cholesterol ester fraction was counted in a scintillation counter. This procedure is a modification of that described by Hashimoto, et al., Life Scie., 12 (Part II), 1-12 (1973).
The results of this test on representative compounds of this invention appear in Table I. The final concentration of the test compound was 5.2 μg./ml., and the effectiveness of the compound is expressed as percent inhibition of the ACAT enzyme compared to control values.

The structures appear in SMILES notation.

As for `COc1ccc(C=CC(=O)Nc2ccc(C(=O)O)cc2)cc1` [4-(p-Methoxycinnamamido)benzoic acid], the inhibition at 5.2 µg/mL was determined as 20%.

For `CCOC(=O)c1ccc(NC(=O)CCc2ccc(OC)cc2)cc1` [4-(p-Methoxyhydrocinnamamido)benzoic acid, ethyl ester], the inhibition at 5.2 µg/mL stood at 28%. For `CCOC(=O)c1ccc(NC(=O)C=C(c2ccccc2)c2ccc(C)cc2)cc1` [4-(p-Methyl-β-phenylcinnamamido)benzoic acid, ethyl ester] the value was 88%; for `Cc1ccc(C(=CC(=O)Nc2ccc(C(=O)O)cc2)c2ccccc2)cc1` [4-(p-Methyl-β-phenylcinnamamido)benzoic acid], 80%; for `CCOC(=O)c1ccc(NC(=O)CCc2ccc(C)cc2)cc1` [4-(p-Methylhydrocinnamamido)benzoic acid, ethyl ester], 25%. For `O=C(C=Cc1ccc(Cl)cc1)Nc1ccc(C(=O)O)cc1` [4-(p-chlorocinnamamido)benzoic acid, 4-(p-Chlorocinnamamido)benzoic acid] the value was 41%; for `CCOC(=O)c1ccc(NC(=O)C(c2ccc(Cl)cc2)c2ccc(Cl)cc2)cc1` [4-[2,2-Bis(p-chlorophenyl)acetamido]benzoic acid, ethyl ester], 86%; for `O=C(O)c1ccc(NC(=O)C(c2ccc(Cl)cc2)c2ccc(Cl)cc2)cc1` [4-[2,2-Bis(p-chlorophenyl)acetamido]benzoic acid], 71%. For `CCOC(=O)c1ccc(NC(=O)C=C(c2ccc(Br)cc2)c2ccc(Br)cc2)cc1` [4-[3,3-Bis(p-bromophenyl)acrylamido]benzoic acid, ethyl ester] the value was 96%; for `O=C(C=C(c1ccc(Br)cc1)c1ccc(Br)cc1)Nc1ccc(C(=O)O)cc1` [4-[3,3-Bis(p-bromophenyl)acrylamido]benzoic acid], 90%.

Consider `CCOC(=O)c1ccc(NC(=O)C=C(c2ccc(Cl)cc2)c2ccc(Cl)cc2)cc1` [4-[3,3-Bis(p-chlorophenyl)acrylamido]benzoic acid, ethyl ester], for which the inhibition at 5.2 µg/mL amounted to 93%.

`O=C(C=C(c1ccc(Cl)cc1)c1ccc(Cl)cc1)Nc1ccc(C(=O)O)cc1` [4-[3,3-Bis(p-chlorophenyl)acrylamido]benzoic acid] had an inhibition at 5.2 µg/mL of 91%. For `CCOC(=O)c1ccc(NC(=O)CC(c2ccc(Cl)cc2)c2ccc(Cl)cc2)cc1` [4-[3,3-Bis(p-chlorophenyl)propionamido]benzoic acid, ethyl ester] the value was 94%; for `O=C(CC(c1ccc(Cl)cc1)c1ccc(Cl)cc1)Nc1ccc(C(=O)O)cc1` [4-[3,3-Bis(p-chlorophenyl)propionamido]benzoic acid], 71%; for `CCOC(=O)c1ccc(NC(=O)C=C(c2ccc(F)cc2)c2ccc(F)cc2)cc1` [4-[3,3-Bis(p-fluorophenyl)acrylamido]benzoic acid, ethyl ester], 74%.

In turn, `O=C(C=C(c1ccc(F)cc1)c1ccc(F)cc1)Nc1ccc(C(=O)O)cc1` [4-[3,3-Bis(p-fluorophenyl)acrylamido]benzoic acid] displayed an inhibition at 5.2 µg/mL of 79%. For `CCOC(=O)c1ccc(NC(=O)C=C(c2ccc(OC)cc2)c2ccc(OC)cc2)cc1` [4-[3,3-Bis(p-methoxyphenyl)acrylamido]benzoic acid, ethyl ester], testing at 5.2 µg/mL gave an inhibition of 97%. For `COc1ccc(C(=CC(=O)Nc2ccc(C(=O)O)cc2)c2ccc(OC)cc2)cc1` [4-[3,3-Bis(p-methoxyphenyl)acrylamido]benzoic acid] the value was 78%; for `CCOC(=O)c1ccc(NC(=O)C=C(c2ccc(C)cc2)c2ccc(C)cc2)cc1` [4-[3,3-Di-(p-tolyl)acrylamido]benzoic acid, ethyl ester], 97%; for `Cc1ccc(C(=CC(=O)Nc2ccc(C(=O)O)cc2)c2ccc(C)cc2)cc1` [4-[3,3-Di-(p-tolyl)acrylamido]benzoic acid], 89%. Take `CCOC(=O)c1ccc(NC(=O)CCCCCc2ccc(Cl)cc2)cc1` [4-[6-(p-Chlorophenyl)hexanamido]benzoic acid, ethyl ester]: at 5.2 µg/mL the inhibition was 42%.

`CCOC(=O)COC(=O)c1ccc(NC(=O)C=C(c2ccc(Cl)cc2)c2ccc(Cl)cc2)cc1` [4-[p-Chloro-β-(p-chlorophenyl)cinnamamido]benzoic acid, ethyl glycolate ester] gave an inhibition at 5.2 µg/mL of 88%. For `CCOC(=O)c1ccc(NC(=O)CC(c2ccc(OC)cc2)c2ccc(OC)cc2)cc1` [Ethyl 4'-[3,3-bis(4-methoxyphenyl)propionamido]benzoate] the value was 91%. For `CCOC(=O)c1ccc(NC(=O)CC(c2ccc(C)cc2)c2ccc(C)cc2)cc1` [Ethyl 4'-[3,3-bis(4-methylphenyl)propionamido]benzoate] the value was 95%; for `CC(=O)c1ccc(NC(=O)CC(c2ccc(Cl)cc2)c2ccc(Cl)cc2)cc1` [N--(4-Acetylphenyl)-3,3-bis(p-chlorophenyl)propionamide], 95%. For `N#Cc1ccc(NC(=O)CC(c2ccc(Cl)cc2)c2ccc(Cl)cc2)cc1` [N--(4-Cyanophenyl)-3,3-bis(p-chlorophenyl)propionamide] the value was 96%; for `O=C(CC(c1ccc(Cl)cc1)c1ccc(Cl)cc1)Nc1ccc(F)cc1` [N--(4-Fluorophenyl)-3,3-bis(p-chlorophenyl)propionamide], 67%; for `Cc1ccc(NC(=O)CC(c2ccc(Cl)cc2)c2ccc(Cl)cc2)cc1` [N--(4-Tolyl)-3,3-bis(p-chlorophenyl)propionamide], 36%. `O=C(CC(c1ccc(Cl)cc1)c1ccc(Cl)cc1)Nc1ccc(C(F)(F)F)cc1` [N--(4-Trifluoromethylphenyl)-3,3-bis(p-chlorophenyl)propionamide] displayed an inhibition at 5.2 µg/mL of 35%. For `COc1ccc(C(CC(=O)Nc2ccc(Br)cc2)c2ccc(OC)cc2)cc1` [N--(p-Bromophenyl)-3,3-bis(4-methoxyphenyl)propionamide] the value was 79%; for `COc1ccc(C(CC(=O)Nc2ccc(Cl)cc2)c2ccc(OC)cc2)cc1` [N--(p-Chlorophenyl)-3,3-bis(4-methoxyphenyl)propionamide], 91%; for `Cc1ccc(C(CC(=O)Nc2ccc(Cl)cc2)c2ccc(C)cc2)cc1` [N--(p-Chlorophenyl)-3,3-bis(p-tolyl)propionamide], 89%.

`COc1ccc(C(CC(=O)Nc2ccc(C#N)cc2)c2ccc(OC)cc2)cc1` [N--(p-Cyanophenyl)-3,3-bis(4-methoxyphenyl)propionamide]: 5.2 µg/mL produced 94% inhibition. For the compound `Cc1ccc(C(CC(=O)Nc2ccc(C#N)cc2)c2ccc(C)cc2)cc1` [N--(p-Cyanophenyl)-3,3-bis(p-tolyl)propionamide], the inhibition at 5.2 µg/mL came to 90%. Regarding `COc1ccc(C(CC(=O)Nc2ccc(F)cc2)c2ccc(OC)cc2)cc1` [N--(p-Fluorophenyl)-3,3-bis(4-methoxyphenyl)propionamide], testing at 5.2 µg/mL gave an inhibition of 92%.

Regarding `Cc1ccc(C(CC(=O)Nc2ccc(F)cc2)c2ccc(C)cc2)cc1` [N--(p-Fluorophenyl)-3,3-bis(p-tolyl)propionamide], the inhibition at 5.2 µg/mL was found to be 92%.
